# Reference: patent publication US20250368634A1, “PHENYL AMIDE COMPOUNDS AND METHODS OF USE” (SCHRÖDINGER, INC., priority 2022, published 2025)
# pIC50: −log10 of the molar value. Read-outs that look alike come from different tables or passages of the source.
# Molecular target: SOS1-KRas (G12C) (Homo sapiens (Human), UniProt Q07889)
# Assay: SOS1-KRas (G12C) FRET Assay
# Format: binding
# [1] = inhibition of SOS1:KRAS interaction, 0.5 nM His10-SOS1 (res. 564-1049), 2.5 nM GST-KRAS (res. 1-169, G12C), 2 hrs at RT
# SOS1-KRas (G12C), sequence (Q07889 564-1049, stated change not applied): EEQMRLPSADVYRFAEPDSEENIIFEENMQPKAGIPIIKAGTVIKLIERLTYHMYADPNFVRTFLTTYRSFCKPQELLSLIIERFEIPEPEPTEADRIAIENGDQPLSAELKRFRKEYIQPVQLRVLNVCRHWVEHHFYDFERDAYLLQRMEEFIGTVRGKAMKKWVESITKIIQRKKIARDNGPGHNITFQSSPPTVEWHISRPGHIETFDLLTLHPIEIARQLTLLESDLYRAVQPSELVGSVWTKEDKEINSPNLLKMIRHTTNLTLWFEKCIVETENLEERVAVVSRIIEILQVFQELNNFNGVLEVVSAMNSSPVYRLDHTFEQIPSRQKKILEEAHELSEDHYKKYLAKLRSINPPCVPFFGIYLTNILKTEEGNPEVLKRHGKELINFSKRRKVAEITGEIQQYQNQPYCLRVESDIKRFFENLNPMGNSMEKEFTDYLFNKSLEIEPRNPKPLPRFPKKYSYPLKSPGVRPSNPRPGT
SMILES,pIC50 [1],pIC50
"C[C@@H](NC(=O)c1cc(N2CC[C@@]23CCOC3)c(F)cc1NC1CCN(C)CC1)c1cccc(C(F)F)c1F (single isomer, unassigned) [Example 34]",–,6.95
"C[C@@H](NC(=O)c1cc(N2CC[C@]23CCOC3)c(F)cc1NC1CCN(C)CC1)c1cccc(C(F)F)c1F (single isomer, unassigned) [Example 35]",–,7.09
"C[C@H](CN(C)C)Nc1cc(F)c(N2CCOCC2)cc1C(=O)N[C@H](C)c1cccc(C(F)F)c1F (single isomer, unassigned) [Example 49]",7.15,–
"C[C@@H](CN(C)C)Nc1cc(F)c(N2CCOCC2)cc1C(=O)N[C@H](C)c1cccc(C(F)F)c1F (single isomer, unassigned) [Example 50]",6.70,–
"C[C@@H](NC(=O)c1cc(-c2ccncc2)c(F)cc1N[C@H]1CN2CCC1CC2)c1cccc(C(F)F)c1F (single isomer, unassigned) [Example 58]",–,8.10
"C[C@@H](NC(=O)c1cc(-c2ccncc2)c(F)cc1N[C@@H]1CN2CCC1CC2)c1cccc(C(F)F)c1F (single isomer, unassigned) [Example 59]",–,7.59
"Cc1c([C@@H](C)NC(=O)c2cc(N3CCOCC3)c(F)cc2NC2CCN(C)CC2)cccc1C(F)(F)F [Example 3, (R)-4-fluoro-N-(1-(2-methyl-3-(trifluoromethyl)phenyl)ethyl)-2-((1-methylpiperidin-4-yl)amino)-5-morpholinobenzamide]",7.24,–
"C[C@@H](NC(=O)c1cc(N2CCOCC2)c(C#N)cc1NC1CCN(C)CC1)c1cccc(C(F)F)c1F [Example 4, (R)-4-cyano-N-(1-(3-(difluoromethyl)-2-fluorophenyl)ethyl)-2-((1-methylpiperidin-4-yl)-amino)-5-morpholinobenzamide]",7.82,–

# Further lines, results first:
pIC50 [1],pIC50,SMILES
7.40,–,"C[C@@H](NC(=O)c1cc(N2CC[C@@]3(CCOC3)C2)c(F)cc1NC1CCN(C)CC1)c1cccc(C(F)F)c1F (single isomer, unassigned) [Example 30]"
7.39,–,"C[C@@H](NC(=O)c1cc(N2CC[C@]3(CCOC3)C2)c(F)cc1NC1CCN(C)CC1)c1cccc(C(F)F)c1F (single isomer, unassigned) [Example 31]"
–,7.01,"C[C@@H]1CC(F)(F)CN1c1cc(C(=O)N[C@H](C)c2cccc(C(F)F)c2F)c(NC2CCN(C)CC2)cc1F (single isomer, unassigned) [Example 36]"
–,7.69,"C[C@@H](NC(=O)c1cc(N2CCOCC2)c(F)cc1NC1CCN(C)CC1)c1cccc(C(F)F)c1F [Example 1, (R)—N-(1-(3-(difluoromethyl)-2-fluorophenyl)ethyl)-4-fluoro-2-((1-methylpiperidin-4-yl)amino)-5-morpholinobenzamide]"
7.00,–,"C[C@@H](NC(=O)c1cc(N2C[C@H]3C[C@@H]2CO3)c(F)cc1NC1CCN(C)CC1)c1cccc(C(F)F)c1F [Example 2, 5-((1R,4R)-2-oxa-5-azabicyclo[2.2.1]heptan-5-yl)-N—((R)-1-(3-(difluoromethyl)-2-fluorophenyl)ethyl)-4-fluoro-2-((1-methylpiperidin-4-yl)amino)benzamide]"
–,7.61,"C[C@@H](NC(=O)c1cc(N2CCN(C)CC2)c(F)cc1NC1CCN(C)CC1)c1cccc(C(F)F)c1F [Example 5, (R)—N-(1-(3-(difluoromethyl)-2-fluorophenyl)ethyl)-4-fluoro-5-(4-methylpiperazin-1-yl)-2-((1-methylpiperidin-4-yl)amino)benzamide]"
–,7.06,"C[C@@H](NC(=O)c1cc(N2CC3CC(C2)O3)c(F)cc1NC1CCN(C)CC1)c1cccc(C(F)F)c1F [Example 6, 5-(6-oxa-3-azabicyclo[3.1.1]heptan-3-yl)-N—((R)-1-(3-(difluoromethyl)-2-fluorophenyl)ethyl)-4-fluoro-2-((1-methylpiperidin-4-yl)amino)benzamide]"
